We go through 16 compounds from patent US20240018161A1, “MODULATORS OF CYSTIC FIBROSIS TRANSMEMBRANE CONDUCTANCE REGULATOR” (VERTEX PHARMACEUTICALS INCORPORATED, priority 2020, published 2024).

For data set [1] the following is noted: 13-membered ring.
The target of data set [2] is T1, CFTR-mediated chloride transport in human intestinal epithelial enteroid cells (Homo sapiens, UniProt P13569). Put plainly: Membrane potential dye, Enteroid Assay A. The format is cell-based. The settings on record: for EC50: read-out: Ent. A EC50. A digest of the protocol: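 Membrane potential dye (20 μM methyl oxonol, with 30 μM CaCCinh-A01 and 30 μM Chicago Sky Blue) loaded 25 min at room temperature into ROCK-inhibitor-seeded human enteroid cells. Chloride-free stimulation buffer triggered transport, followed by 15 min fluorescence. % Activity relative to 3 μM/3 μM/300 nM triple-combination control.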
T1 sequence (P13569 with tags, fused parts or gaps DEL508-508): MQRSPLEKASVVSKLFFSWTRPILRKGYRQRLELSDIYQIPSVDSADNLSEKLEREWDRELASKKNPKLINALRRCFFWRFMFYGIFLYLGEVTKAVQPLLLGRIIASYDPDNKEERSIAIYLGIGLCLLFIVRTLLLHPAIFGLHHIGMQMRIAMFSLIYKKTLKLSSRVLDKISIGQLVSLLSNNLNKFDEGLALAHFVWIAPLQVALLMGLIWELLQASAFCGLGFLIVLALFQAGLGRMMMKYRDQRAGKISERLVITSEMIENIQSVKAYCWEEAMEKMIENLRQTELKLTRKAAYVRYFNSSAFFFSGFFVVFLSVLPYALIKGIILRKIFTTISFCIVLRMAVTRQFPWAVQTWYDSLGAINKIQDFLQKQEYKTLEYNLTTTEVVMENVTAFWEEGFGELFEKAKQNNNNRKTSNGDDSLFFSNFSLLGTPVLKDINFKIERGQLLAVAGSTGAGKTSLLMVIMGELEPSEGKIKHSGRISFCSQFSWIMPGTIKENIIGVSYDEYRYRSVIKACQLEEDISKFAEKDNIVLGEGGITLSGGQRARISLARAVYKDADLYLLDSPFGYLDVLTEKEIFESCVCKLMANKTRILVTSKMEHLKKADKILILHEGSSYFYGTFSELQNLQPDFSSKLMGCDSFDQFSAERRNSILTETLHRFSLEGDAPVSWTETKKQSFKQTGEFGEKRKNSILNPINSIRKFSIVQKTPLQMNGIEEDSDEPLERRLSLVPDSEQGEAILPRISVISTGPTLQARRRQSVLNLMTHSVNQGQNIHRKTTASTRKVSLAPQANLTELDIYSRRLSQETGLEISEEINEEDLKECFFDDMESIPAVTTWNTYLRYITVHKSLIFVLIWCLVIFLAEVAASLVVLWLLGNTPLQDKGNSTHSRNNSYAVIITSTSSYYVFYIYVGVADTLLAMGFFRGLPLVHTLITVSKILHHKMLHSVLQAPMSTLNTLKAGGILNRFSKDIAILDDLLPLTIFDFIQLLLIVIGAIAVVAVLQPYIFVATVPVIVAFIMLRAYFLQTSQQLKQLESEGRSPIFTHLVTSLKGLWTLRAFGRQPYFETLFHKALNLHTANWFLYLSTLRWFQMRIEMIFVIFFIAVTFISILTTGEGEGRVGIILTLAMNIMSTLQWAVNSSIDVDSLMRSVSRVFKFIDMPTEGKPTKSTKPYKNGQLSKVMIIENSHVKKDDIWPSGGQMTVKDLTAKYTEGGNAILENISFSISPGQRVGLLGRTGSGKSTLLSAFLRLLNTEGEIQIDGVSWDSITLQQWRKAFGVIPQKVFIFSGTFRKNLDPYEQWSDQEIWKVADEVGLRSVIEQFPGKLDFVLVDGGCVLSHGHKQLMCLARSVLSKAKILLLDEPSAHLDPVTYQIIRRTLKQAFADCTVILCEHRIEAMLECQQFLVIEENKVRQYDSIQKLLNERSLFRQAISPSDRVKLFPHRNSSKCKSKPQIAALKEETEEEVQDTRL

The target in data set [3] is T1, CFTR-mediated chloride transport in human intestinal epithelial enteroid cells. Put plainly: Membrane potential dye, Enteroid Assay B. To be noted: for EC50: read-out: Ent. B EC50. The format is cell-based. As to the method:
Base medium (ADF+++) consisted of Advanced DMEM/Ham's F12, 2 mM Glutamax, 10 mM HEPES, […] penicillin/streptomycin.
Bath 1 Buffer consisted of 1 mM MgCl2, 160 mM NaCl, 4.5 mM KCl, 10 mM HEPES, 10 mM Glucose, 2 mM CaCl2.
Chloride Free Buffer consisted of 1 mM Magnesium Gluconate, 2 mM Calcium Gluconate, 4.5 mM Potassium Gluconate, 160 mM Sodium Gluconate, 10 mM HEPES, 10 mM Glucose.
Bath1 Dye Solution consisted of Bath 1 Buffer, 0.04% Pluronic F127, 20 μM Methyl Oxonol, 30 μM CaCCinh-A01, 30 μM Chicago Sky Blue.
Chloride Free Dye Solution consisted of Chloride Free Buffer, 0.04% Pluronic F127, 20 μM Methyl Oxonol, 30 μM CaCCinh-A01, 30 μM Chicago Sky Blue.
3. Enteroid Cell Harvesting and Seeding
Cells were recovered in cell recovery solution, collected by centrifugation at 650 rpm for 5 min at 4° C., resuspended in TryPLE and incubated for 5 min at 37° C. Cells were then collected by centrifugation at 650 rpm for 5 min at 4° C. and resuspended in IEMM containing 10 μM ROCK inhibitor (RI).
5. Membrane Potential Dye, Enteroid Assay B
Briefly, cells were washed 5 times in Bath 1 Buffer. Bath 1 Dye Solution was added and the cells were incubated for 25 min at room temperature. Following dye incubation, cells were washed 3 times in Chloride Free Dye Solution. Chloride transport was initiated by addition of Chloride Free Dye Stimulation Solution and the fluorescence signal was read for 15 min.

Setting [4] is: enteroid cells incubated with test compound 18-24 hours, acute 10 μM forskolin and 300 nM N-[2,4-bis(1,1-dimethylethyl)-5-hydroxyphenyl]-1,4-dihydro-4-oxoquinoline-3-carboxamide.
[5] abbreviates: percentage of chloride transport of triple combination control (3 μM N-[(6-amino-2-pyridyl)sulfonyl]-6-(3-fluoro-5-isobutoxy-phenyl)-2-[(4S)-2,2,4-trimethylpyrrolidin-1-yl]pyridine-3-carboxamide based).
Where [6] appears, read: percentage of chloride transport of triple combination control (1 μM (14S)-8-[3-(2-{Dispiro[2.0.2.1]heptan-7-yl}ethoxy)-1H-pyrazol-1-yl]-... trione based).

Like-named read-outs stand apart in the source and are kept apart here. Bounds are passed on as bounds.

As for `Cc1cccc(C)c1-c1cc2nc(n1)NS(=O)(=O)c1cccc(c1)C(=O)N1C(c3cncc(N(C)C4CCC4)n3)CC[C@H](O2)[C@H]1CC(C)C` (stereo partly drawn), the ring closure, yield after HPLC turned out to be 4% in data set [1] (from Cc1cccc(C)c1-c1cc(Cl)nc(NS(=O)(=O)c2cccc(C(=O)N3C(c4cncc(N(C)C5CCC5)n4)CC[C@H](O)[C@H]3CC(C)C)c2)n1, snar bond, NaH, DMF, 21.5 mM, 24.0 h) and 31.6% in data set [1] (from Cc1cccc(C)c1-c1cc(O[C@H]2CCC(c3cncc(N(C)C4CCC4)n3)N[C@@H]2CC(C)C)nc(NS(=O)(=O)c2cccc(C(=O)O)c2)n1, amide bond, CDMT/NMM, DMF, 16.6 mM, 48.0 h, 2 steps).
On to `Cc1cccc(C)c1-c1cc2nc(n1)NS(=O)(=O)c1cccc(c1)C(=O)N1CC3CCCN(C)C3C(C1)O2` (stereo not drawn), for which the ring closure, yield after HPLC in data set [1] (from 3-[[4-(2,6-dimethylphenyl)-6-[(1-methyl-3,4,4a,5,6,7,8,8a-octahydro-2H-1,6-naphthyridin-8-yl)oxy]pyrimidin-2-yl]sulfamoyl]benzoic acid (Dihydrochloride salt), amide bond, HATU/DIEA, 25.0 °C) turned out to be 19%.
For the compound `Cc1cccc(C)c1-c1cc2nc(n1)NS(=O)(=O)c1cccc(c1)C(=O)N1Cc3cc(C(C)(C)C)ccc3C(C1)O2` (single isomer, unassigned) [Compound 183, 20-tert-butyl-12-(2,6-dimethylphenyl)-15-oxa-8λ^6-thia-1,9,11,25-tetraazapentacyclo[14.7.1.13,7.110,14.017,22]hexacosa-3,5,7(26),10,12,14(25),17,19,21-nonaene-2,8,8-trione], in data set [2] (Enteroid Assay A), the “Ent. A Max Activity (%)” value is “+++ (+++ is >600%)” and the EC50 was under 1000 nM. Further, in data set [3] (Enteroid Assay B), the “Ent. B Max Activity (%)” value is “+++ (+++ is >600%)” and the EC50 was under 1000 nM.
`Cc1cccc(C)c1-c1cc2nc(n1)NS(=N)(=O)c1cccc(c1)C(=O)N1CCN(CCC(C)(C)C)C[C@H](C1)O2` (single isomer, unassigned) [Compound 245, 18-(3,3-dimethylbutyl)-12-(2,6-dimethylphenyl)-8-imino-15-oxa-8λ^6-thia-1,9,11,18,22-pentaazatetracyclo[14.4.1.13,7.110,14]tricosa-3,5,7(23),10,12,14(22)-hexaene-2,8-dione]: in data set [2] (Enteroid Assay A), the “Ent. A Max Activity (%)” value was “++ (++ is 30-60%)” and the EC50 was under 1000 nM. Further, in data set [3] (Enteroid Assay B), the “Ent. B Max Activity (%)” value is “+++ (+++ is >600%)” and the EC50 was under 1000 nM.
With `Cc1cccc(C)c1-c1cc2nc(n1)NS(=O)(=O)c1cccc(c1)C(=O)N1Cc3cc(C(C)(C)C)ccc3C(O2)[C@H]1CC(C)(C)C` (stereo in doubt) [Compound 188, (16S,24R)-20-tert-Butyl-12-(2,6-dimethylphenyl)-24-(2,2-dimethylpropyl)-15-oxa-8λ^6-thia-1,9,11,25-tetraazapentacyclo[14.7.1.13,7.110,14.017,22]hexacosa-3(26),4,6,10(25),11,13,17,19,21-nonaene-2,8,8-trione], in data set [2] (Enteroid Assay A), the “Ent. A Max Activity (%)” value is recorded as “+++ (+++ is >600%)” and the EC50 is under 1000 nM. In data set [3] (Enteroid Assay B), the “Ent. B Max Activity (%)” value is recorded as “+++ (+++ is >600%)” and the EC50 is under 1000 nM.
As for `Cc1cccc(C)c1-c1cc2nc(n1)NS(=O)(=O)c1cccc(c1)C(=O)N1Cc3ccccc3[C@H](C1)O2` (stereo in doubt) [Compound 319], the EC50 in data set [2] (setting [4]) and in data set [3] (setting [4]) was under 1000 nM throughout. Moreover, in data set [2] (setting [5]), the “Ent. A Max Activity (%)” value is “+++ (+++ is >60%)”. In addition, the “Ent. B Max Activity (%)” value in data set [3] (setting [6]) is listed as “+++ (+++ is >60%)”.
As to `Cc1cccc(C)c1-c1cc2nc(n1)NS(=O)(=O)c1cccc(c1)C(=O)N1CCN(CCC(C)(C)C)C[C@H](C1)O2` [Compound 1, (16R)-18-(3,3-Dimethylbutyl)-12-(2,6-dimethylphenyl)-15-oxa-8λ^6-thia-1,9,11,18,22-pentaazatetracyclo[14.4.1.13,7.110,14]tricosa-3,5,7(23),10,12,14(22)-hexaene-2,8,8-trione], the concentration for a half-maximal effect (EC50) in data set [2] (setting [4]) and in data set [3] (setting [4]) was under 1000 nM each time. Besides, the “Ent. A Max Activity (%)” value in data set [2] (setting [5]) is “+++ (+++ is >60%)”. Also, the “Ent. B Max Activity (%)” value in data set [3] (setting [6]) is reported as “+++ (+++ is >60%)”.
On to `Cc1cccc(C)c1-c1cc2nc(n1)NS(=O)(=O)c1cccc(c1)C(=O)N1CCN(C3CC4(CCCCC4)C3)[C@H](CC(C)C)[C@H](C1)O2` [Compound 120, (16S,17R)-12-(2,6-dimethylphenyl)-17-(2-methylpropyl)-18-{spiro[3.5]nonan-2-yl}-15-oxa-8λ^6-thia-1,9,11,18,22-pentaazatetracyclo[14.4.1.13,7.110,14]tricosa-3(23),4,6,10(22),11,13-hexaene-2,8,8-trione], for which, in data set [3] (Enteroid Assay B), the “Ent. B Max Activity (%)” value was “+++ (+++ is >600%)” and the EC50 was under 1000 nM.
Taken in the same sequence, the figures for `Cc1cccc(C)c1-c1cc2nc(n1)NS(=O)(=O)c1cccc(c1)C(=O)N1CCN(C)[C@H](CC(C)C)[C@H](C1)O2` [Compound 121, (16S,17R)-12-(2,6-Dimethylphenyl)-18-methyl-17-(2-methylpropyl)-15-oxa-8λ^6-thia-1,9,11,18,22-pentaazatetracyclo[14.4.1.13,7.110,14]tricosa-3(23),4,6,10(22),11,13-hexaene-2,8,8-trione] were “+++ (+++ is >600%)” and under 1000 nM.
Taken in the same sequence, the figures for `Cc1cccc(C)c1-c1cc2nc(n1)NS(=O)(=O)c1cccc(c1)C(=O)N1CCN(C(=O)CC(C)(C)C)[C@H](CC(C)C)[C@H](C1)O2` [Compound 122, (16S,17R)-18-(3,3-Dimethylbutanoyl)-12-(2,6-dimethylphenyl)-17-(2-methylpropyl)-15-oxa-8λ^6-thia-1,9,11,18,22-pentaazatetracyclo[14.4.1.13,7.110,14]tricosa-3(23),4,6,10(22),11,13-hexaene-2,8,8-trione] were “+++ (+++ is >600%)” and under 1000 nM.
As for `Cc1cccc(C)c1-c1cc2nc(n1)NS(=N)(=O)c1cccc(c1)C(=O)N1CCN(C(=O)OC(C)(C)C)CC(C1)O2` (stereo not drawn) [Compound 239, tert-Butyl 12-(2,6-dimethylphenyl)-8-imino-2,8-dioxo-15-oxa-8λ^6-thia-1,9,11,18,22-pentaazatetracyclo[14.4.1.13,7.110,14]tricosa-3,5,7(23),10,12,14(22)-hexaene-18-carboxylate], in data set [2] (Enteroid Assay A), the “Ent. A Max Activity (%)” value is listed as “+++ (+++ is >600%)” and the EC50 was in the range of 1000 to 3000 nM. In data set [3] (Enteroid Assay B), the “Ent. B Max Activity (%)” value was “+++ (+++ is >600%)” and the EC50 was 1000 to 3000 nM.
For the compound `Cc1cccc(C)c1-c1cc2nc(n1)NS(=N)(=O)c1cccc(c1)C(=O)N1CCN(CCC(C)(C)C)CC(C1)O2` (stereo not drawn) [Compound 243, 18-(3,3-Dimethylbutyl)-12-(2,6-dimethylphenyl)-8-imino-15-oxa-8λ^6-thia-1,9,11,18,22-pentaazatetracyclo[14.4.1.13,7.110,14]tricosa-3,5,7(23),10,12,14(22)-hexaene-2,8-dione], in data set [2] (Enteroid Assay A), the “Ent. A Max Activity (%)” value is “+++ (+++ is >600%)” and the EC50 was under 1000 nM. In data set [3] (Enteroid Assay B), the “Ent. B Max Activity (%)” value is recorded as “+++ (+++ is >600%)” and the EC50 was under 1000 nM.
For `Cc1cccc(C)c1-c1cc2nc(n1)NS(=N)(=O)c1cccc(c1)C(=O)N1CCN(Cc3ccccc3)CC(C1)O2` (stereo not drawn) [Compound 248], in data set [2] (Enteroid Assay A), the “Ent. A Max Activity (%)” value was “++ (++ is 30-60%)” and the EC50 lay within 1000 to 3000 nM. Further, in data set [3] (Enteroid Assay B), the “Ent. B Max Activity (%)” value is listed as “+++ (+++ is >600%)” and the 50% effective concentration (EC50) is under 1000 nM.
As for `Cc1cccc(C)c1-c1cc2nc(n1)NS(=O)(=O)c1cccc(c1)C(=O)N1CCN(CCC(C)(C)C)C[C@@H]1CO2` [Compound 298], the EC50 in data set [2] (setting [4]) and in data set [3] (setting [4]) was under 1000 nM each time. For the same compound, the “Ent. A Max Activity (%)” value in data set [2] (setting [5]) is reported as “+++ (+++ is >60%)”. Moreover, the “Ent. B Max Activity (%)” value in data set [3] (setting [6]) is on record as “+++ (+++ is >60%)”.
`Cc1cccc(C)c1-c1cc2nc(n1)NS(=O)(=O)c1cccc(c1)C(=O)N1CCc3cc(C(C)(C)C)ccc3[C@@H](O2)[C@H]1CC(C)C` [Compound 329]: in data set [3] (Enteroid Assay B), the “Ent. B Max Activity (%)” value is given as “+++ (+++ is >600%)” and the EC50 is under 1000 nM.
As for `Cc1cccc(C)c1-c1cc2nc(n1)NS(=O)(=O)c1cncc(c1)C(=O)N1Cc3cc(C(C)(C)C)ccc3[C@H](O2)[C@H]1CC(C)C` [Compound 331], in data set [2] (Enteroid Assay A), the “Ent. A Max Activity (%)” value is given as “+++ (+++ is >600%)” and the EC50 is under 1000 nM. Besides, in data set [3] (Enteroid Assay B), the “Ent. B Max Activity (%)” value is “+++ (+++ is >600%)” and the EC50 was under 1000 nM.

As a reminder, the EC50 is the midpoint of the concentration-response curve.
